Consider ten molecules from patent US20030143645A1, “Quinone reductase 2 and aldehyde dehydrogenase as therapeutic targets” (priority 2001, published 2003).

Like-named read-outs stand apart in the source and are kept apart here. Some results are limits rather than exact numbers.

The target of series [1] is T1, QR2 (Homo sapiens, UniProt P16083).
T1 sequence (P16083 1-231): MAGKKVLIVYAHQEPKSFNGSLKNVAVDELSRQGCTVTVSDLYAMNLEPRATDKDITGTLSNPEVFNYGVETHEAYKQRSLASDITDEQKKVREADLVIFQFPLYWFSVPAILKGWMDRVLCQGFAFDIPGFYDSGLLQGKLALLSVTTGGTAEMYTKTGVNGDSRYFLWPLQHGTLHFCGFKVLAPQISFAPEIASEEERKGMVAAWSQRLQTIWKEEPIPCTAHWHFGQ
Put plainly: hQR2 activity assay, enzyme purified from human RBC (Example 1). It counts as biochemical. Details: Pure hALDH was eluted with 5 mM NADH and pure hQR2 with 5 mM NMeN; tissue Valley Biomedical (blood); host or cells: human red blood cells. As for the experimental part:
ATP-affinity array chromatography. In whole mouse experiments, the animal (except for its tail, feet, skin and intestines) was frozen in liquid N2 and blended in buffer A containing 50 mM Hepes, pH 7.5, 50 mM NaCl, 10 mM MgCl2, 0.1% NONIDET- P40, 1 mM dithiothreitol, 1 μg/ml leupeptin, 100 μg/ml pefabloc and 10 μg/ml aprotinin. Mouse lysate was clarified by centrifugation for 1 hr at 100,000×g. For infected and non-infected RBC's˜1.5×10^9 cells were mixed with an equal volume of 2×buffer A, rocked for 30 min at 4° C., and clarified by centrifugation for 1 hr at 100,000×g. Supernatants were dialyzed overnight against 50 mM Hepes, pH 7.5, 50 mM NaCl, 10 mM MgCl2 and 1 mM dithiothreitol. […] Lysates were centrifuged twice at 125,000×g for 1 hr at 4° C. […] Pure hALDH was eluted with 5 mM NADH and pure hQR2 with 5 mM NMeN. The eluants were dialyzed overnight at 4° C. against 25 mM Tris pH 8.0 and 1 mM DTT. hALDHl was assayed as described in Table 2. Purified hQR2 was assayed at 22° C. in 100 μM N-methyldihydronicotinamide, 30 μM menadione, 0.1% Triton X-100, 50 mM Tris pH 8.5, 100 μM dicoumarol (unless stated otherwise).
For QR2 Kd apparent values determined using the expression [formula]
The Kd was determined as [formula]
Where Ao=rate in the absence of drug; Aapp=rate+drug; [M]=concentration of menadione.

The subject of series [2] is purine binding proteome (hALDH1 and hQR2). The series can be described thus: ATP affinity array / ATP-Sepharose displacement elution of RBC purine binding proteome. Details: species or system human. To be noted: for proteins eluted from ATP affinity array (hALDH1 and hQR2): non-infected red cells, drug at [mM]; for proteins eluted from ATP-Sepharose (ALDH1 55 kDa, QR2 26 kDa): RBC extract, 5 mM drug (Example 2). How it is done:
ATP-affinity array chromatography. In whole mouse experiments, the animal (except for its tail, feet, skin and intestines) was frozen in liquid N2 and blended in buffer A containing 50 mM Hepes, pH 7.5, 50 mM NaCl, 10 mM MgCl2, 0.1% NONIDET- P40, 1 mM dithiothreitol, 1 μg/ml leupeptin, 100 μg/ml pefabloc and 10 μg/ml aprotinin. Mouse lysate was clarified by centrifugation for 1 hr at 100,000×g. For infected and non-infected RBC's˜1.5×10^9 cells were mixed with an equal volume of 2×buffer A, rocked for 30 min at 4° C., and clarified by centrifugation for 1 hr at 100,000×g. Supernatants were dialyzed overnight against 50 mM Hepes, pH 7.5, 50 mM NaCl, 10 mM MgCl2 and 1 mM dithiothreitol. […] Proteins were resolved by 12% SDS-PAGE and visualized by staining either with Coomassie brilliant Blue R-250 or silver nitrate. Alternatively, proteins were transferred to membrane GeneMate (Kaysville, Utah) in transfer buffer (25 mM Tris, 200 mM glycine, 20% methanol, and 0.01% SDS) for mixed peptide sequencing (Damer et al, J. Biol. Chem. 273:24396 (1998)). hALDH 1 and hQR2 purification and activity assays. Fresh human red blood cells (RBC) were obtained from Valley Biomedical, washed twice with PBS, and lysed in buffer B (0.1% Triton X, 50 mM Tris pH 7.5, 125 mM NaCl, 1 μg/mL aprotonin, 1 μg/mL pepstatin and 10 μg/mL PEFABLOC). Lysates were centrifuged twice at 125,000×g for 1 hr at 4° C. Cleared supernatant was filtered through a […] filter and loaded onto PQ-Sepharose. Pure hALDH was eluted with 5 mM NADH and pure hQR2 with 5 mM NMeN. The eluants were dialyzed overnight at 4° C. against 25 mM Tris pH 8.0 and 1 mM DTT. hALDHl was assayed as described in Table 2. Purified hQR2 was assayed at 22° C. in 100 μM N-methyldihydronicotinamide, 30 μM menadione, 0.1% Triton X-100, 50 mM Tris pH 8.5, 100 μM dicoumarol (unless stated otherwise). N-methyldihydronicotinamide was synthesized (Ortiz-Maldonado et al, Biochemistry 38(50):16636-16647 (1999)) and stored in 100 mM Tris-sulfate pH 8.0.
An ATP affinity array was charged with RBC and P. falciparum (blood stage) infected RBC extract.
chromatography. P. falciparum-infected or non-infected RBCs were lysed by mixing with an equal volume of 2×buffer A and rocking for 30 min at 4° C. 1×buffer A: 50 mM Hepes, pH 7.5, 50 mM NaCl, 10 mM MgCl2, 0.1% NONIDET-P40, 1 mM dithiothreitol, 1 μg/ml leupeptin, 100 μg/ml pefabloc and 1 μg/ml aprotinin. […] Proteins were resolved by 12% SDS-PAGE and visualized by staining with Coomassie brilliant blue R-250 or silver nitrate. Alternatively, proteins were transferred to PVM membrane (Kaysville, Utah) for mixed peptide sequencing (Damer et al, J. Biol. Chem. 273(38):24396-24405 (1998)).
To better understand the mechanism of the quinolines, an attempt was made to identify all quinoline interacting proteins in a cell or animal lysate. To achieve this, a functional proteomics approach was used as outlined in FIG. 7. In this strategy, three different, yet complementary approaches were conducted to identify and validate targets of the quinolines. In step one, termed displacement affinity chromatography, a specific sub-proteome from a cell is captured on an affinity matrix by virtue of its interaction with an immobilized ligand (FIG. 7, Step 1). The sup-proteome is captured after application of saturating amounts of cell lysate and extensive washing of the resin. The compounds of interest (in this case, the quinolines) are then applied to the matrix in parallel and allowed to interact with the bound proteome. […] In the second step, affinity matrices were created by directly linking the quinoline drugs to Sepharose, and after application of cell lysates, all proteins that specifically eluted from these matrices in the presence of drug were identified (FIG. 7 Step 2).

For series [3], the target named is T1, QR2. Put plainly: QR2 activity assay with recombinant QR2 (Example 2). Format: biochemical. Details: GST (N, cleaved yes); made in house; E. coli only by inference. As for the experimental part: Cloning of human QR2. Human QR2 was PCR amplified from human liver cDNA (Clontech) with the following primers: 5′[…]-3′ and 5′-[…]-3′ and cloned into the pGEX-4T-2 GST expression vector (Pharmacia). GST-tagged QR2 was purified and the GST tag removed according to the manufacturers instructions.
(§1) ALDH1, QR2 and QR1 activity assays. […] Reaction products were separated with a gradient of acetonitrile in 10 mM triethylamine acetic acid. […] QR1 IC50 values were calculated using GraphPad Prism.

Series [4] addresses QR1 (Oryctolagus cuniculus, UniProt U3KNP2). Put plainly: QR1 activity assay (Example 2). Format: biochemical, rabbit. Details: QR1 was purified from rabbit liver as previously described; from tissue; host or cells: rabbit liver. As for the experimental part: Purification of native ALDH1, QR2 and QR1. RBC extract was prepared as described above and applied to PQ-Sepharose equilibrated in buffer A. ALDH1 and QR2 were obtained by eluting the column with 5 mM b-NAD^+ and NMeH respectively.
as §1

Series [5] concerns Plasmodium falciparum strain 3D7. Put plainly: P. falciparum growth by (3H)hypoxanthine uptake. It counts as cell-based. To be noted: in vitro. How it is done:
Plasmodium cultures. Plasmodium falciparum strain 3D7 was obtained from the MR4/ATCC and grown according to the included specifications. Parasites were harvested by saponin lysis as previously described (Schlichtherle et al (eds) Methods in Malaria Research 77(MR4/ATCC, Manasas, Va. 2000). P. falciparum growth was measured by (^3H)hypoxanthine uptake as previously described (Schlichtherle et al (eds) Methods in Malaria Research 77(MR4/ATCC, Manasas, Va. 2000).
To determine the contribution of QR2 or ALDH1 inhibition to the antimalarial properties of the quinolines, known inhibitors of QR2 or ALDH1 were added to P. falciparum and its growth was measured. Known inhibitors of P. falciparum growth all had IC50 values in agreement with the literature (FIG. 12A). […] The explanation for this finding is likely to be related to the abilities of the drugs to penetrate the plasma membrane or their ability to become concentrated within P. falciparum infected RBCs.

Series [6] concerns malaria infection. Put plainly: cell-based assays of infection.
Substrate in series [7]: CC1=CC(=O)c2ccccc2C1=O
Put plainly: hQR2 activity assay, enzyme purified from human RBC (Example 1). Format: biochemical. To be noted: 22.0 °C.

[8] abbreviates: QR1 purified from rabbit liver, read-out: QR1 IC50 (μM) ± SEM.
Setting [9] is: recombinant QR2, 50 μM NMeH, 5-30 μM menadione, read-out: QR2 K1 (μM) ± SEM.

QR1, sequence (U3KNP2 1-274): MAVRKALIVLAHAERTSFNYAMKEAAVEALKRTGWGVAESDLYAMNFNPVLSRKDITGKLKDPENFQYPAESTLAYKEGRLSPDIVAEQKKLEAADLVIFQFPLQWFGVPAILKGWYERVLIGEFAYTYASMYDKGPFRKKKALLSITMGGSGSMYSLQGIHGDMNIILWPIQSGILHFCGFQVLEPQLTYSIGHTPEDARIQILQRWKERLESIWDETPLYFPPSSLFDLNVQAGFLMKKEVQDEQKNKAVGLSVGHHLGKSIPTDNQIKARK

`Cc1cc(N)c2ccccc2n1` [4AQ, 4 amino quinaldine]: the Kd in series [1] (purified hQR2 from human RBC, menadione substrate, read-out: Kd(app)) was found to be 0.81 µM. Moreover, the “proteins eluted from ATP affinity array (hALDH1 and hQR2)” value (“proteins eluted from ATP affinity array” for short) in series [2] is listed as “selectively eluted two proteins”.
What is called IC50 is the midpoint of a concentration-inhibition curve. `COc1cc(NC(C)CCCN)c2ncccc2c1` (stereo not shown) [PQ, primaquine]: the Kd in series [1] came out at 9.3 µM. Moreover, in series [3], the Ki turned out to be 1.04 ± 0.38 µM and the “inhibition of QR2 activity” value is on record as “potent inhibitors”. Besides, in series [2], the “proteins eluted from ATP-Sepharose (ALDH1 55 kDa, QR2 26 kDa)” value is “selectively eluted proteins of 55 and 26 kDa”; the “proteins eluted from ATP affinity array” value is “selectively eluted two proteins”. Moreover, in series [4], the IC50 was 124 ± 10 µM and the “effect on QR1 activity” value is “weakly inhibited”.
As for `Nc1ccc(S(=O)(=O)c2ccc(N)cc2)cc1` [dapsone], the “elution of hQR2, hALDH1 or any other protein from ATP affinity array” value in series [2] (infected or non infected red cell extract) is on record as “did not elute”.
`CCN(CC)c1ccc(C=O)cc1` [DEAB, diethylaminobenzaldehyde]: the concentration for half-maximal inhibition (IC50) in series [5] is 277 µM. The “antimalarial activity” value in series [6] is reported as “have antimalarial activity”.
As to `CCN(CC)CCCC(C)Nc1c2ccc(Cl)cc2nc2ccc(OC)cc12` (stereo not shown) [QC, Quinacrine], in series [3], the Ki was determined as 0.51 ± 0.11 µM and the “inhibition of QR2 activity” value is recorded as “potent inhibitors”. For the same molecule, the “effect on QR1 activity” value in series [4] was “not affected”. Moreover, the IC50 in series [4] (setting [8]) is greater than 1000 µM.
The molecule `O=c1c(O)c(-c2ccc(O)c(O)c2)oc2cc(O)cc(O)c12` [quercetin] came in with an IC50 in series [5] (Plasmodium falciparum) of 81.8 µM.
For `OC(c1cc(C(F)(F)F)nc2c(C(F)(F)F)cccc12)C1CCCCN1` (stereo not shown) [MQ, mefloquine], the “inhibition of QR2 activity” value in series [3] is on record as “less potent inhibitors”. In addition, in series [3] (setting [9]), the Ki stood at 17 ± 4 µM. Further, in series [2], the “proteins eluted from ATP-Sepharose (ALDH1 55 kDa, QR2 26 kDa)” value is “selectively eluted proteins of 55 and 26 kDa”; the “proteins eluted from ATP affinity array” value was “selectively eluted two proteins”. The “effect on QR1 activity” value in series [4] was “weakly inhibited”. For the same molecule, in series [4] (setting [8]), the IC50 came to 616 ± 60 µM.
Turning to `C=C[C@H]1C[N@@]2CC[C@H]1C[C@H]2[C@H](O)c1ccnc2ccc(OC)cc12` [Q, quinine], the “inhibition of QR2 activity” value in series [3] is “less potent inhibitors”. Further, in series [3] (setting [9]), the Ki was found to be 252 ± 50 µM. The IC50 in series [4] (setting [8]) worked out at 9.6 ± 0.8 µM.
In the case of `O=c1cc(-c2ccccc2)oc2cc(O)cc(O)c12` [chrysin], the 50% inhibitory concentration (IC50) in series [5] (Plasmodium falciparum) stood at 53.8 µM.

B1: hQR2 (Homo sapiens) (protein)
chain: T1 sequence (P16083 1-231)
notes: Pure hALDH was eluted with 5 mM NADH and pure hQR2 with 5 mM NMeN; tissue Valley Biomedical (blood); host or cells: human red blood cells
In general, Km refers to the substrate concentration at which the rate is half of its maximum. For B1, the Km in series [7] stood at 14 µM.
